Assays:
Glutamate NMDA receptor [1] = assay: Tested for in vitro binding affinity against NMDA receptor by using [3H]-CGP- 39653 as radioligand in rat forebrain membranes.; format: cell membranes
Glutamate NMDA receptor [2] = assay: Tested for in vitro binding affinity against NMDA receptor by using [3H]-CGP- 39653 as radioligand in rat forebrain membranes; format: cell membranes, Membrane

IC50 (Glutamate NMDA receptor [1]) [nM]	IC50 (Glutamate NMDA receptor [2]) [nM]	Structure (SMILES)
42		NCCCCCC/C(=C\C(N)C(=O)O)CP(=O)(O)O (stereo not given)
	106	NC(/C=C(\CCCCCCNC(=O)c1ccccc1)CP(=O)(O)O)C(=O)O (stereo not given)
36		[N-]=[N+]=Nc1ccc(C(=O)NCCCCCC/C(=C\C(N)C(=O)O)CP(=O)(O)O)c(O)c1 (stereo not given)
38		[N-]=[N+]=Nc1ccc(C(=O)NCCCCCC/C(=C\C(N)C(=O)O)CP(=O)(O)O)cc1 (stereo not given)
34		[N-]=[N+]=Nc1ccc(C(=O)NCCCCCC/C(=C\C(N)C(=O)O)CP(=O)(O)O)c(O)c1I (stereo not given)

Reference: ChEMBL document CHEMBL1126911, “Synthesis and binding properties of 2-amino-5-phosphono-3-pentenoic acid photoaffinity ligands as probes for the glutamate recognition site of the NMDA receptor” (J Med Chem, 1993)
